This is an account of results in patent US20110217300A1, “Quinazolinone Compounds and Methods of Use Thereof” (priority 2007, published 2011).

Read-outs that look alike come from different tables or passages of the source.

One may read the IC50 as the midpoint of a concentration-inhibition curve. The term GI50 denotes the concentration that inhibits growth by half.

Assay [1] addresses T1, HsEg5 (Homo sapiens, UniProt P52732).
T1 sequence (P52732 18-359 limits assumed): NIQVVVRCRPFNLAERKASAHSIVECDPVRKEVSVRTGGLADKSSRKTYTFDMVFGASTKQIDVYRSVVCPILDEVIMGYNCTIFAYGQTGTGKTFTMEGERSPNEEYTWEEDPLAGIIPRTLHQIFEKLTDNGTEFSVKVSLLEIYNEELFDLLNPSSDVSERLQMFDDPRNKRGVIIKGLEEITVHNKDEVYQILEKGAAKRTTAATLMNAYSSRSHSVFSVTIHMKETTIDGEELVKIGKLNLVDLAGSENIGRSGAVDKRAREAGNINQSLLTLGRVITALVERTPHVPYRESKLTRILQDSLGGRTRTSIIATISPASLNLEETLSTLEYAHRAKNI
Nature of the assay: Luminescent detection of HsEg5 ATPase activity (Kinase-Glo Plus). The format is biochemical. The method, then: Purified HsEg5 motor fragment was activated by mixture with preformed MT polymer (Cytoskeleton, Denver, Colo.) at room temperature for 20 minutes. MT activated ATPase activity was measured using Kinase-Glo® Plus Luminescent Kinase Assay (Promega, Madison, Wis.).
For inhibitor screening, 5 μL of compounds were incubated with 20 μL of MT-activated HsEg5 such that the final concentrations for compound range from 100 μM to 5 nM (1 to 3 serial dilutions, final concentration) and final concentration for HsEg5 is 25 nM. The mixture was incubated at room temperature for 20 minutes with mild shaking. The screening assay contained 0.3% DMSO in all reaction wells. We used wells containing only DMSO as negative controls and wells without ATP as background. Addition of 15 μL of 13 μM ATP (final concentration of 5 μM) initiated the ATP hydrolysis reaction. The 40 μL-reaction was allowed to proceed at room temperature for 45 minutes before addition of 40 μL of Kinase®-Glo Plus. After 15-minute development at room temperature, the luminescent was measured.
Eg5 IC50 data was generated using both fluorescence and Luminescence detection assays as described above. Compounds I-69 were screened using automated fluorescence assay while compounds 70-83 were screened using Luminescence detection assay. (See reference “Zhang B, Senator D, Wilson C J, Ng S C. (2005) “Development of a high-throughput robotic fluorescence-based assay for HsEg5 inhibitor screening” Anal Biochem. 345:326-335″).
In general terms: Kinase-Glo reads ATP consumption through a luciferase reaction.

In another assay the test system is NCI-H460. In words: MTS cell viability assay. It is filed as cell-based, human. The note with it: Homo sapiens, NCI-H460, 72 h. The procedure, abridged: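 GI50 values come from tetrazolium (MTS) absorbance at 490 nm, measured within two hours of SDS addition. Cells had been treated with compound for 72 hours in supplemented DMEM, then given […] PMS 7.67 mg/L for 4 hours.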
Background: Tetrazolium dyes change colour on reduction, which living cells bring about.

In the next assay the test system is A549. Nature of the assay: MTS cell viability assay. The format is cell-based. To be noted: Homo sapiens, read-out: MTS NCI A549 GI50. The essentials:
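A549 and a second human cancer line seeded in DMEM/10% FBS, allowed 16–24 h to attach, then exposed 72 h at 37 °C, 5% CO2 to serially diluted compound (final DMSO 0.33%). Viability measured by MTS.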

In assay [2] the target is T1, HsEg5. In words: Fluorescence detection of HsEg5 ATPase activity (ADP Quest, automated). The format is biochemical. The procedure, abridged: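 Microtubule-activated HsEg5 motor fragment (10 nM, 500 nM MTs) preincubated 10 min with compound, then 20 μM ATP for 10 min at room temperature in Pipes pH 7.0, MgCl2, paclitaxel, 0.3% DMSO. ADP detected via coupled-enzyme resorufin fluorescence; IC50 over 100 μM–5 nM.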

The mark [3] stands for this setting: A549 non small cell lung, 72 hours.
Where [4] appears, read: read-out: MTS NCI H460 GI50, NCI-H460 non small cell lung, 72 hours.
Setting [5] is: A549, 72 h, A549 non small cell lung, 72 hours.

On to `C#CC[C@H](c1nc2cc(Cl)ccc2c(=O)n1Nc1ccccc1)N(CCCN)C(=O)c1c(OC)ccc(F)c1F` [Compound 77], for which the half-maximal inhibitory concentration (IC50) at HsEg5 [1] turned out to be 70 nM. In addition, the GI50 amounted to 530 nM in the assay on NCI-H460 (read-out: MTS NCI H460 GI50) and 860 nM in the assay on A549 (A549, 72 h).

As to `CC#CCC(c1nc2cc(Cl)ccc2c(=O)n1Nc1ccccc1)N(CCCN)C(=O)c1cccc(Cl)c1F` (stereo not shown) [Compound 74, N-(3-Aminopropyl)-3-chloro-N-(1-(7-chloro-4-oxo-3-(phenylamino)-3,4-dihydroquinazolin-2-yl)pent-3-ynyl)-2-fluorobenzamide], the IC50 on HsEg5 [1] was determined as 5900 nM. The GI50 in the assay on NCI-H460 (read-out: MTS NCI H460 GI50) was found to be 1230 nM; in the assay with A549 (A549, 72 h), 1800 nM.

`C#CC[C@H](c1nc2cc(Cl)ccc2c(=O)n1Nc1ccccc1)N(CCCN)C(=O)c1cc(F)cc(F)c1` [Compound 80, (R)—N-(3-Aminopropyl)-N-(1-(7-chloro-4-oxo-3-(phenylamino)-3,4-dihydroquinazolin-2-yl)but-3-ynyl)-3,5-difluorobenzamide]: the IC50 on HsEg5 [1] amounted to 90 nM. Also, the GI50 came out at 100 nM in the assay with NCI-H460 (read-out: MTS NCI H460 GI50) and 580 nM in the assay with A549 (A549, 72 h).

`C#CC[C@H](c1nc2cc(Cl)ccc2c(=O)n1Nc1ccccc1)N(CCCN)C(=O)c1cc(F)c(F)c(F)c1F` [Compound 72, (R)—N-(3-Aminopropyl)-N-(1-(7-chloro-4-oxo-3-(phenylamino)-3,4-dihydroquinazolin-2-yl)but-3-ynyl)-2,3,4,5-tetrafluorobenzamide]: on HsEg5 [1], the half-inhibitory concentration (IC50) amounted to 40 nM. The 50% growth inhibitory concentration (GI50) was 330 nM with NCI-H460 (read-out: MTS NCI H460 GI50) and 620 nM in the assay on A549 (A549, 72 h).

Turning to `C#CC[C@H](c1nc2cc(Cl)ccc2c(=O)n1Nc1ccccc1)N(CCCN)C(=O)c1cccc(F)c1F` [Compound 82, (R)—N-(3-Aminopropyl)-N-(1-(7-chloro-4-oxo-3-(phenylamino)-3,4-dihydroquinazolin-2-yl)but-3-ynyl)-2,3-difluorobenzamide], the 50% inhibitory concentration (IC50) at HsEg5 [1] was 30 nM.

With `CCC(c1nc2cc(Cl)ccc2c(=O)n1Nc1ccccc1F)N(CCCN)C(=O)c1ccc(C)cc1` (stereo not shown) [Compound 25, N-(3-Aminopropyl)-N-(1-{7-chloro-3-[(2-fluorophenyl)amino]-4-oxo-3,4-dihydroquinazolin-2-yl}propyl)-4-methylbenzamide], the IC50 against HsEg5 [2] came to 1430 nM. The GI50 is 959 nM with NCI-H460 (read-out: MTS NCI H460 GI50) and 1520 nM in the assay with A549 (setting [3]).

As to `CCC(c1nc2cc(Cl)ccc2c(=O)n1Nc1ccccc1)N(CCCN)C(=O)c1ccc(F)c(C)c1` (stereo not shown) [Compound 18, N-(3-Aminopropyl)-N-[1-(3-anilino-7-chloro-4-oxo-3,4-dihydroquinazolin-2-yl)propyl]-4-fluoro-3-methylbenzamide], at HsEg5 [2], the IC50 was found to be 1250 nM. The GI50 in the assay with NCI-H460 (setting [4]) turned out to be 2500 nM; in the assay with A549 (setting [5]), 3920 nM.

`CCC(c1nc2cc(Cl)ccc2c(=O)n1Nc1ccccc1)N(CCCN)Cc1ccc(C)cc1` (stereo not shown) [Compound 67, 2-{1-[(3-Aminopropyl)(4-methyl-benzyl)amino]propyl}-3-anilino-7-chloro-3H-quinazolin-4-one] registered an IC50 against HsEg5 [2] of 8300 nM. The GI50 in the assay with NCI-H460 (read-out: MTS NCI H460 GI50) is 13100 nM; in the assay on A549 (setting [3]), 15500 nM.

With `CCC(c1nc2cc(Cl)ccc2c(=O)n1Nc1ccccc1)N(CCCN)C(=O)c1ccc([N+](=O)[O-])cc1` (stereo not shown) [Compound 5, N-(3-Aminopropyl)-N-[1-(3-anilino-7-chloro-4-oxo-3,4-dihydroquinazolin-2-yl)propyl]-4-nitrobenzamide], the IC50 at HsEg5 [2] came to 1050 nM. The GI50 in the assay on NCI-H460 (read-out: MTS NCI H460 GI50) is 2390 nM; in the assay on A549 (setting [3]), 4400 nM.

Consider `CCC(c1nc2cc(Cl)ccc2c(=O)n1Nc1ccccc1)N(CCCN)C(=O)c1cccc(Cl)c1Cl` (stereo not shown) [Compound 12, N-(3-Aminopropyl)-N-[1-(3-anilino-7-chloro-4-oxo-3,4-dihydroquinazolin-2-yl)propyl]-2,3-dichlorobenzamide], for which the midpoint of inhibition against HsEg5 [2], the IC50, lay at 818 nM. Further, the GI50 with NCI-H460 (read-out: MTS NCI H460 GI50) turned out to be 2110 nM; in the assay on A549 (setting [3]) it was 3370 nM.

As for `CCC(c1nc2cc(Cl)ccc2c(=O)n1Oc1ccccc1)N(CCCN)C(=O)c1ccc(C)cc1` (stereo not shown) [Compound 29, N-(3-Aminopropyl)-N-[1-(7-chloro-4-oxo-3-phenoxy-3,4-dihydroquinazolin-2-yl)propyl]-4-methylbenzamide], at HsEg5 [2], 2170 nM corresponded to half-maximal inhibition (IC50). Moreover, the concentration for 50% growth inhibition (GI50) in the assay with NCI-H460 (setting [4]) is 2090 nM; in the assay with A549 (setting [5]), 3310 nM.

For `CCC(c1nc2cc(Cl)ccc2c(=O)n1Nc1ccccc1)N(CCCN)C(=O)c1ccc(F)c(Cl)c1` (stereo not shown) [Compound 13, N-(3-Aminopropyl)-N-[1-(3-anilino-7-chloro-4-oxo-3,4-dihydroquinazolin-2-yl)propyl]-3-chloro-4-fluorobenzamide], half-maximal inhibition on HsEg5 [2] (IC50) required 749 nM. For the same compound, the GI50 was 2210 nM with NCI-H460 (read-out: MTS NCI H460 GI50) and 3570 nM in the assay on A549 (setting [3]).

In turn, `CC(c1nc2cc(Cl)ccc2c(=O)n1Nc1ccccc1)N(CCCN)C(=O)c1ccc(Cl)c(Cl)c1` (stereo not shown) [Compound 41, N-(3-Aminopropyl)-N-[1-(3-anilino-7-chloro-4-oxo-3,4-dihydroquinazolin-2-yl)ethyl]-3,4-dichlorobenzamide] had an IC50 against HsEg5 [2] of 3370 nM. The concentration for 50% growth inhibition (GI50) in the assay on NCI-H460 (read-out: MTS NCI H460 GI50) worked out at 6280 nM; in the assay with A549 (setting [3]), 5670 nM.

Regarding `NCCCN(C(=O)c1ccc(F)c(F)c1F)C(Cc1ccc(O)cc1)c1nc2cc(Cl)ccc2c(=O)n1Nc1ccccc1` (stereo not shown) [Compound 55, N-(3-Aminopropyl)-N-[1-(3-anilino-7-chloro-4-oxo-3,4-dihydroquinazolin-2-yl)-2-(4-hydroxyphenyl)ethyl]-2,3,4-trifluorobenzamide], the IC50 at HsEg5 [2] was 4160 nM. The GI50 came out at 16100 nM in the assay with NCI-H460 (setting [4]) and 33700 nM in the assay with A549 (setting [5]).

`CCC(c1nc2cc(Cl)ccc2c(=O)n1Nc1ccccc1)N(CCCN)C(=O)c1ccc(Br)cc1` (stereo not shown) [Compound 2, N-(3-Aminopropyl)-N-[1-(3-anilino-7-chloro-4-oxo-3,4-dihydroquinazolin-2-yl)propyl]-4-bromobenzamide]: 645 nM corresponded to half-maximal inhibition on HsEg5 [2] (IC50). Besides, the GI50 in the assay on NCI-H460 (read-out: MTS NCI H460 GI50) amounted to 1750 nM; in the assay on A549 (setting [3]), 2370 nM.

For the compound `CCC(c1nc2cc(Cl)ccc2c(=O)n1Nc1ccccc1)N(CCCN)C(=O)c1cccc(Br)c1` (stereo not shown) [Compound 14, N-(3-Aminopropyl)-N-[1-(3-anilino-7-chloro-4-oxo-3,4-dihydroquinazolin-2-yl)propyl]-3-bromobenzamide], on HsEg5 [2], the IC50 worked out at 1000 nM. Also, the figures for the 50% growth inhibitory concentration (GI50) in the assay on NCI-H460 (read-out: MTS NCI H460 GI50) and in the assay with A549 (setting [3]) were 3250 nM and 3440 nM, respectively.

Consider `CCC(c1nc2cc(Cl)ccc2c(=O)n1Nc1ccccc1)N(CCCN)C(=O)c1ccc(Cl)cc1` (stereo not shown) [Compound 4, N-(3-Aminopropyl)-N-[1-(3-anilino-7-chloro-4-oxo-3,4-dihydroquinazolin-2-yl)propyl]-4-chlorobenzamide], for which it took 720 nM to reach half-maximal inhibition against HsEg5 [2] (IC50). Moreover, the GI50 in the assay on NCI-H460 (read-out: MTS NCI H460 GI50) is 1140 nM; with A549 (setting [3]), 2400 nM.

As for `NCCCN(C(=O)c1ccc(F)c(Cl)c1)C(Cc1cccs1)c1nc2cc(Cl)ccc2c(=O)n1Nc1ccccc1` (stereo not shown) [Compound 53, N-(3-Aminopropyl)-N-[1-(3-anilino-7-chloro-4-oxo-3,4-dihydroquinazolin-2-yl)-2-(2-thienyl)ethyl]-3-chloro-4-fluorobenzamide], on HsEg5 [2], the midpoint of inhibition, the IC50, lay at 2620 nM. Further, the concentration for 50% growth inhibition (GI50) in the assay on NCI-H460 (setting [4]) is 4440 nM; in the assay with A549 (setting [5]), 5260 nM.

`CCC(c1nc2cc(Cl)ccc2c(=O)n1Nc1ccccc1)N(CCCN)C(=O)c1ccc(F)cc1` (stereo not shown) [Compound 8, N-(3-Aminopropyl)-N-[1-(3-anilino-7-chloro-4-oxo-3,4-dihydroquinazolin-2-yl)propyl]-4-fluorobenzamide] returned an IC50 against HsEg5 [2] of 2130 nM. Further, the concentration for 50% growth inhibition (GI50) was 2830 nM in the assay on NCI-H460 (setting [4]) and 4750 nM with A549 (setting [5]).
